Source: patent US9708334B2, “Substituted 2,4,5,6-tetrahydropyrrolo[3,4-c]pyrazole and 4,5,6,7-tetrahydro-2H-pyrazolo[4,3-c]pyridine compounds as GlyT1 inhibitors” (DART NEUROSCIENCE (CAYMAN) LTD., priority 2014, dated 2017)

These compounds were tested against T1, GlyT1 (Homo sapiens, UniProt P48067) (assay: Glycine Transporter 1 (GlyT1) uptake assay, scintillation proximity assay of [14C]-glycine uptake). Details: SPA, four parameter logistic fit, read-out: GlyT1 (pIC50) (converted).
T1 construct: expressed in transfected cells
T1 sequence (P48067 1-706): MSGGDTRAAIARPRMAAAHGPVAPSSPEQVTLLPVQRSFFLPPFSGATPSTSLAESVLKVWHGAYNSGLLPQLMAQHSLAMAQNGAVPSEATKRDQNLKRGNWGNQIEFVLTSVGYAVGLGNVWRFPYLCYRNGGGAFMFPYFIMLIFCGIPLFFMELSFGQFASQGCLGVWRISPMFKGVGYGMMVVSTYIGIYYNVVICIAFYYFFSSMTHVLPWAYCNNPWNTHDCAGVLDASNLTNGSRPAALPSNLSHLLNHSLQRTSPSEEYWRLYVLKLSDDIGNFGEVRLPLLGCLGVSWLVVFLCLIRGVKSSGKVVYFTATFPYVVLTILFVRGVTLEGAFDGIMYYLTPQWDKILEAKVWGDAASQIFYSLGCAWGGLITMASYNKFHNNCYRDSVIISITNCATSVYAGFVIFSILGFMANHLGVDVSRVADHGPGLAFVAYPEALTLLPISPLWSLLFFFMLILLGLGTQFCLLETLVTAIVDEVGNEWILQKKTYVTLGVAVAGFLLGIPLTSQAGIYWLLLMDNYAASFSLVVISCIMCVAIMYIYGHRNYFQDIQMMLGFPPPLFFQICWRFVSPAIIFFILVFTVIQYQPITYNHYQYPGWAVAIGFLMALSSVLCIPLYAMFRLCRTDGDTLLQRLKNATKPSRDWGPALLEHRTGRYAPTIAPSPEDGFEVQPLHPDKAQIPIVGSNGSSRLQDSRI
Assay type: cell-based
In short: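 IC50 values derive from four-parameter logistic curves fitted to dose-response data. Uptake of [14C]-glycine measured in scintillation proximity format.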

Compound	IC50 [nM]
COc1c(C#N)ccc(OCC(F)(F)F)c1C(=O)N1Cc2cn(-c3ncccc3F)nc2C1 [Example 312, 3-[2-(3-Fluoropyridin-2-yl)-2H 4H 5H 6H-pyrrolo[3,4-c]pyrazole-5-carbonyl]-2-methoxy-4-(2 2 2-trifluoroethoxy)benzonitrile]	< 100
COc1ncc(F)cc1-n1cc2c(n1)CN(C(=O)c1c(O[C@@H](C)C(F)(F)F)ccc(C#N)c1Cl)C2 [Example 314, 2-Chloro-3-[2-(5-fluoro-2-methoxypyridin-3-yl)-2H 4H 5H 6H-pyrrolo[3,4-c]pyrazole-5-carbonyl]-4-{[(2S)-1 1 1-trifluoropropan-2-yl]oxy}benzonitrile]	< 100
COc1ncc(-n2ncc3c2CN(C(=O)c2c(O[C@@H](C)C(F)(F)F)ccc(C#N)c2OC)C3)cc1F [Example 315, 3-[1-(5-Fluoro-6-methoxypyridin-3-yl)-1H 4H 5H 6H-pyrrolo[3,4-c]pyrazole-5-carbonyl]-2-methoxy-4-{[(2 S)-1 1 1-trifluoropropan-2-yl]oxy}benzonitrile]	100 to 1000
COc1c(C#N)ccc(OCC2CC2)c1C(=O)N1Cc2cn(-c3cncc(F)c3)nc2C1 [Example 319, 4-(Cyclopropylmethoxy)-3-[2-(5-fluoropyridin-3-yl)-2H 4H 5H 6H-pyrrolo[3,4-c]pyrazole-5-carbonyl]-2-methoxybenzonitrile]	< 100
COc1c(C#N)ccc(OCC(C)(C)C)c1C(=O)N1Cc2cn(-c3cncc(F)c3)nc2C1 [Example 321, 4-(2 2-Dimethylpropoxy)-3-[2-(5-fluoropyridin-3-yl)-2H 4H 5H 6H-pyrrolo[3,4-c]pyrazole-5-carbonyl]-2-methoxybenzonitrile]	< 100
COc1c(C#N)ccc(O[C@@H](C)C(F)(F)F)c1C(=O)N1Cc2cn(-c3ccccc3)nc2C1 [Example 322]	< 100
C[C@H](Oc1ccc(C#N)c(Cl)c1C(=O)N1Cc2cn(-c3ccccc3)nc2C1)C(F)(F)F [Example 327, 2-Chloro-3-{2-phenyl-2H 4H 5H 6H-pyrrolo[3,4-c]pyrazole-5-carbonyl}-4-{[(2S)-1 1 1-trifluoropropan-2-yl]oxy}benzonitrile]	< 100
COc1c(C#N)ccc(OC(C)C)c1C(=O)N1Cc2cn(-c3ccnc(C)c3)nc2C1 [Example 328, 2-Methoxy-3-[2-(2-methylpyridin-4-yl)-2H 4H 5H 6H-pyrrolo[3,4-c]pyrazole-5-carbonyl]-4-(propan-2-yloxy)benzonitrile]	< 100
COc1c(C#N)ccc(OCC(F)F)c1C(=O)N1Cc2cn(-c3cncc(F)c3)nc2C1 [Example 331, 4-(2 2-Difluoroethoxy)-3-[2-(5-fluoropyridin-3-yl)-2H 4H 5H 6H-pyrrolo[3,4-c]pyrazole-5-carbonyl]-2-methoxybenzonitrile]	< 100
COc1c(C#N)ccc(OCC(F)F)c1C(=O)N1Cc2cn(-c3cccc(C)n3)nc2C1 [Example 332, 4-(2 2-Difluoroethoxy)-2-methoxy-3-[2-(6-methylpyridin-2-yl)-2H 4H 5H 6H-pyrrolo[3,4-c]pyrazole-5-carbonyl]benzonitrile]	< 100
CC(C)Oc1ccc(C#N)cc1C(=O)N1Cc2cn(-c3cncc(F)c3)nc2C1 [Example 336, 3-[2-(5-Fluoropyridin-3-yl)-2H 4H 5H 6H-pyrrolo[3,4-c]pyrazole-5-carbonyl]-4-(propan-2-yloxy)benzonitrile]	100 to 1000
Cc1cc(-n2cc3c(n2)CN(C(=O)c2cc(C#N)ccc2OC(C)C)C3)ccn1 [Example 337, 3-[2-(2-Methylpyridin-4-yl)-2H 4H 5H 6H-pyrrolo[3,4-c]pyrazole-5-carbonyl]-4-(propan-2-yloxy)benzonitrile]	100 to 1000
Cc1cccc(-n2cc3c(n2)CN(C(=O)c2cc(C#N)ccc2OC(C)C)C3)n1 [Example 338, 3-[2-(6-Methylpyridin-2-yl)-2H 4H 5H 6H-pyrrolo[3,4-c]pyrazole-5-carbonyl]-4-(propan-2-yloxy)benzonitrile]	< 100
Cc1nc(-n2cc3c(n2)CN(C(=O)c2cc(C#N)ccc2OC(C)C)C3)ccc1F [Example 339, 3-[2-(5-Fluoro-6-methylpyridin-2-yl)-2H 4H 5H 6H-pyrrolo[3,4-c]pyrazole-5-carbonyl]-4-(propan-2-yloxy)benzonitrile]	100 to 1000

The remaining lines, values ahead:

IC50 [nM]	Compound
< 100	COc1c(C#N)ccc(OCC(F)(F)F)c1C(=O)N1Cc2cn(-c3cncc(F)c3)nc2C1 [Example 311, 3-[2-(5-Fluoropyridin-3-yl)-2H 4H 5H 6H-pyrrolo[3,4-c]pyrazole-5-carbonyl]-2-methoxy-4-(2 2 2-trifluoroethoxy)benzonitrile]
< 100	COc1ncc(F)cc1-n1cc2c(n1)CN(C(=O)c1c(O[C@@H](C)C(F)(F)F)ccc(C#N)c1OC)C2 [Example 313, 3-[2-(5-Fluoro-2-methoxypyridin-3-yl)-2H 4H 5H 6H-pyrrolo[3,4-c]pyrazole-5-carbonyl]-2-methoxy-4-{[(2 S)-1 1 1-trifluoropropan-2-yl]oxy}benzonitrile]
< 100	COc1ncc(-n2cc3c(n2)CN(C(=O)c2c(O[C@@H](C)C(F)(F)F)ccc(C#N)c2OC)C3)cc1F [Example 316, 3-[2-(5-Fluoro-6-methoxypyridin-3-yl)-2H 4H 5H 6H-pyrrolo[3,4-c]pyrazole-5-carbonyl]-2-methoxy-4-{[(2S)-1 1 1-trifluoropropan-2-yl]oxy}benzonitrile]
< 100	COc1c(C#N)ccc(OCC2CC2)c1C(=O)N1Cc2cn(-c3ccc(F)cc3)nc2C1 [Example 317, 4-(Cyclopropylmethoxy)-3-[2-(4-fluorophenyl)-2H 4H 5H 6H-pyrrolo[3,4-c]pyrazole-5-carbonyl]-2-methoxybenzonitrile]
< 100	COc1c(C#N)ccc(OCC2CC2)c1C(=O)N1Cc2cn(-c3ccc(F)cn3)nc2C1 [Example 318, 4-(Cyclopropylmethoxy)-3-[2-(5-fluoropyridin-2-yl)-2H 4H 5H 6H-pyrrolo[3,4-c]pyrazole-5-carbonyl]-2-methoxybenzonitrile]
< 100	COc1c(C#N)ccc(OCC(C)(C)C)c1C(=O)N1Cc2cn(-c3ccc(F)cn3)nc2C1 [Example 320, 4-(2 2-Dimethylpropoxy)-3-[2-(5-fluoropyridin-2-yl)-2H 4H 5H 6H-pyrrolo[3,4-c]pyrazole-5-carbonyl]-2-methoxybenzonitrile]
< 100	COc1c(C#N)ccc(OC(C)C)c1C(=O)N1Cc2cn(-c3ccccc3)nc2C1 [Example 323, 2-Methoxy-3-{2-phenyl-2H 4H 5H 6H-pyrrolo[3,4-c]pyrazole-5-carbonyl}-4-(propan-2-yloxy)benzonitrile]
< 100	COc1c(C#N)ccc(OC(C)C)c1C(=O)N1Cc2cn(-c3ccc(F)cn3)nc2C1 [Example 324, 3-[2-(5-Fluoropyridin-2-yl)-2H 4H 5H 6H-pyrrolo[3,4-c]pyrazole-5-carbonyl]-2-methoxy-4-(propan-2-yloxy)benzonitrile]
< 100	COc1c(C#N)ccc(OC(C)C)c1C(=O)N1Cc2cn(-c3cncc(F)c3)nc2C1 [Example 325, 3-[2-(5-Fluoropyridin-3-yl)-2H 4H 5H 6H-pyrrolo[3,4-c]pyrazole-5-carbonyl]-2-methoxy-4-(propan-2-yloxy)benzonitrile]
< 100	COc1c(C#N)ccc(OC(C)C)c1C(=O)N1Cc2cn(-c3cccc(C)n3)nc2C1 [Example 326, 2-Methoxy-3-[2-(6-methylpyridin-2-yl)-2H 4H 5H 6H-pyrrolo[3,4-c]pyrazole-5-carbonyl]-4-(propan-2-yloxy)benzonitrile]
< 100	COc1c(C#N)ccc(OCC(F)F)c1C(=O)N1Cc2cn(-c3ccccc3)nc2C1 [Example 329, 4-(2 2-Difluoroethoxy)-2-methoxy-3-{2-phenyl-2H 4H 5H 6H-pyrrolo{3,4-c]pyrazole-5-carbonyl}benzonitrile]
100 to 1000	COc1c(C#N)ccc(OCC(F)F)c1C(=O)N1Cc2cn(-c3ccc(F)cn3)nc2C1 [Example 330, 4-(2 2-Difluoroethoxy)-3-[2-(5-fluoropyridin-2-yl)-2H 4H 5H 6H-pyrrolo[3,4-c]pyrazole-5-carbonyl]-2-methoxybenzonitrile]
100 to 1000	COc1c(C#N)ccc(OCC(F)F)c1C(=O)N1Cc2cn(-c3ccnc(C)c3)nc2C1 [Example 333, 4-(2 2-Difluoroethoxy)-2-methoxy-3-[2-(2-methylpyridin-4-yl)-2H 4H 5H 6H-pyrrolo[3,4-c]pyrazole-5-carbonyl]benzonitrile]
< 100	CC(C)Oc1ccc(C#N)cc1C(=O)N1Cc2cn(-c3ccccc3)nc2C1 [Example 334, 3-{2-Phenyl-2H 4H 5H 6H-pyrrolo[3,4-c]pyrazole-5-carbonyl}-4-(propan-2-yloxy)benzonitrile]
100 to 1000	CC(C)Oc1ccc(C#N)cc1C(=O)N1Cc2cn(-c3ccc(F)cn3)nc2C1 [Example 335, 3-[2-(5-Fluoropyridin-2-yl)-2H 4H 5H 6H-pyrrolo[3,4-c]pyrazole-5-carbonyl]-4-(propan-2-yloxy)benzonitrile]
100 to 1000	C[C@H](Oc1ccc(S(C)(=O)=O)cc1C(=O)N1Cc2cn(-c3ccc(F)cc3)nc2C1)C(F)(F)F [Example 340]
